# Laboratory results: PubChem BioAssay (NCI)
#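 Tested at 5 concentrations; 48 h exposure; 96-well plates; endpoints linearly interpolated, else capped at highest concentration. GI50 is the concentration that inhibits growth by half. TGI denotes the concentration required for complete inhibition of growth.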
# What was measured:
# Test in all cases: NCI-60 cell line screen, 48 h
# OVCAR-3 ovarian = tested on: OVCAR-3 ovarian
# SK-MEL-28 melanoma = tested on: SK-MEL-28 melanoma
# SNB-19 CNS = tested on: SNB-19 CNS
# PC-3 prostate = tested on: PC-3 prostate
# CAKI-1 renal = tested on: CAKI-1 renal
# HL-60(TB) leukemia = tested on: HL-60(TB) leukemia
# MOLT-4 leukemia = tested on: MOLT-4 leukemia
# A498 renal = tested on: A498 renal
# HS 578T breast = tested on: HS 578T breast
# KM12 colon = tested on: KM12 colon
# M14 melanoma = tested on: M14 melanoma
# MALME-3M melanoma = tested on: MALME-3M melanoma
# A549 NSCLC = tested on: A549 NSCLC
# RXF 393 renal = tested on: RXF 393 renal
# BT-549 breast = tested on: BT-549 breast
# OVCAR-8 ovarian = tested on: OVCAR-8 ovarian
# IGROV1 ovarian = tested on: IGROV1 ovarian
# NCI-H23 lung = tested on: NCI-H23 lung
# SK-OV-3 ovarian = tested on: SK-OV-3 ovarian
# UO-31 renal = tested on: UO-31 renal
# HCT-15 colon = tested on: HCT-15 colon
# NCI-H460 lung = tested on: NCI-H460 lung
# MDA-MB-231 breast = tested on: MDA-MB-231 breast
# RPMI-8226 leukemia = tested on: RPMI-8226 leukemia
# COLO 205 colon = tested on: COLO 205 colon
# NCI-H226 lung = tested on: NCI-H226 lung
# K-562 leukemia = tested on: K-562 leukemia
# SK-MEL-2 melanoma = tested on: SK-MEL-2 melanoma
# UACC-62 melanoma = tested on: UACC-62 melanoma
# SNB-75 CNS = tested on: SNB-75 CNS
# ACHN renal = tested on: ACHN renal
# MCF7 breast = tested on: MCF7 breast
# SK-MEL-5 melanoma = tested on: SK-MEL-5 melanoma
# NCI-H522 lung = tested on: NCI-H522 lung
# SN12C renal = tested on: SN12C renal
# MDA-MB-435 = tested on: MDA-MB-435
# HCT-116 colon = tested on: HCT-116 colon
# DU-145 prostate = tested on: DU-145 prostate
# SF-539 CNS = tested on: SF-539 CNS
# CCRF-CEM leukemia = tested on: CCRF-CEM leukemia
# SR leukemia = tested on: SR leukemia
# T-47D breast = tested on: T-47D breast
# HOP-92 NSCLC = tested on: HOP-92 NSCLC
# UACC-257 melanoma = tested on: UACC-257 melanoma
# OVCAR-4 ovarian = tested on: OVCAR-4 ovarian
# SW-620 colon = tested on: SW-620 colon
# HCC-2998 colon = tested on: HCC-2998 colon
# NCI/ADR-RES ovarian = tested on: NCI/ADR-RES ovarian
# TK-10 renal = tested on: TK-10 renal
# LOX IMVI melanoma = tested on: LOX IMVI melanoma
# SF-268 CNS = tested on: SF-268 CNS
# 786-0 renal = tested on: 786-0 renal
# SF-295 CNS = tested on: SF-295 CNS
# OVCAR-5 ovarian = tested on: OVCAR-5 ovarian
# EKVX NSCLC = tested on: EKVX NSCLC
# HT29 colon = tested on: HT29 colon
# U251 CNS = tested on: U251 CNS
# HOP-62 NSCLC = tested on: HOP-62 NSCLC
# MDA-MB-468 breast = tested on: MDA-MB-468 breast
compound,measurement,setting,value
FC(F)(F)c1cc2c(Cl)ncnc2n1CCC1CCOCC1,GI50,OVCAR-3 ovarian,12.2 µM
same,TGI,OVCAR-3 ovarian,27.4 µM
same,GI50,SK-MEL-28 melanoma,2.6 µM
same,TGI,SK-MEL-28 melanoma,6 µM
same,GI50,SNB-19 CNS,5.21 µM
same,TGI,SNB-19 CNS,18.1 µM
same,GI50,PC-3 prostate,2.97 µM
same,TGI,PC-3 prostate,11.3 µM
same,GI50,CAKI-1 renal,14.6 µM
same,TGI,CAKI-1 renal,30.2 µM
same,GI50,HL-60(TB) leukemia,2.21 µM
same,TGI,HL-60(TB) leukemia,5.07 µM
same,GI50,MOLT-4 leukemia,2.35 µM
same,TGI,MOLT-4 leukemia,5.45 µM
same,GI50,A498 renal,16.2 µM
same,TGI,A498 renal,29.9 µM
same,GI50,HS 578T breast,12.1 µM
same,TGI,HS 578T breast,45.5 µM
same,GI50,KM12 colon,16.3 µM
same,TGI,KM12 colon,33.9 µM
same,GI50,M14 melanoma,3.76 µM
same,TGI,M14 melanoma,16.2 µM
same,GI50,MALME-3M melanoma,15.2 µM
same,TGI,MALME-3M melanoma,29.2 µM
same,GI50,A549 NSCLC,22 µM
same,TGI,A549 NSCLC,56.9 µM
same,GI50,RXF 393 renal,8.75 µM
same,TGI,RXF 393 renal,22.1 µM
same,GI50,BT-549 breast,10.2 µM
same,TGI,BT-549 breast,22.6 µM
same,GI50,OVCAR-8 ovarian,2.44 µM
same,TGI,OVCAR-8 ovarian,7.33 µM
same,GI50,IGROV1 ovarian,1.78 µM
same,TGI,IGROV1 ovarian,3.49 µM
same,GI50,NCI-H23 lung,2.59 µM
same,TGI,NCI-H23 lung,10 µM
same,GI50,SK-OV-3 ovarian,17.3 µM
same,TGI,SK-OV-3 ovarian,33.3 µM
same,GI50,UO-31 renal,1.79 µM
same,TGI,UO-31 renal,3.79 µM
same,GI50,HCT-15 colon,2.93 µM
same,TGI,HCT-15 colon,11 µM
same,GI50,NCI-H460 lung,2.42 µM
same,TGI,NCI-H460 lung,5.66 µM
same,GI50,MDA-MB-231 breast,3.9 µM
same,TGI,MDA-MB-231 breast,14 µM
same,GI50,RPMI-8226 leukemia,14.6 µM
same,TGI,RPMI-8226 leukemia,41.4 µM
same,GI50,COLO 205 colon,16.4 µM
same,TGI,COLO 205 colon,37.2 µM
same,GI50,NCI-H226 lung,13.9 µM
same,TGI,NCI-H226 lung,28.5 µM
same,GI50,K-562 leukemia,2.84 µM
same,TGI,K-562 leukemia,8.66 µM
same,GI50,SK-MEL-2 melanoma,13.2 µM
same,TGI,SK-MEL-2 melanoma,28.2 µM
same,GI50,UACC-62 melanoma,4.23 µM
same,TGI,UACC-62 melanoma,15.7 µM
same,GI50,SNB-75 CNS,3.09 µM
same,TGI,SNB-75 CNS,15.1 µM
same,GI50,ACHN renal,11.1 µM
same,TGI,ACHN renal,26 µM
same,GI50,MCF7 breast,11.5 µM
same,TGI,MCF7 breast,36.4 µM
same,GI50,SK-MEL-5 melanoma,2.79 µM
same,TGI,SK-MEL-5 melanoma,9.23 µM
same,GI50,NCI-H522 lung,1.68 µM
same,TGI,NCI-H522 lung,3.68 µM
same,GI50,SN12C renal,6.67 µM
same,TGI,SN12C renal,19.8 µM
same,GI50,MDA-MB-435,5.01 µM
same,TGI,MDA-MB-435,18.3 µM
same,GI50,HCT-116 colon,2.36 µM
same,TGI,HCT-116 colon,6.48 µM
same,GI50,DU-145 prostate,4.35 µM
same,TGI,DU-145 prostate,15.1 µM
same,GI50,SF-539 CNS,13.6 µM
same,TGI,SF-539 CNS,27.7 µM
same,GI50,CCRF-CEM leukemia,1.41 µM
same,TGI,CCRF-CEM leukemia,4.56 µM
same,GI50,SR leukemia,2.05 µM
same,TGI,SR leukemia,5.32 µM
same,GI50,T-47D breast,20.2 µM
same,TGI,T-47D breast,59.6 µM
same,GI50,HOP-92 NSCLC,13.9 µM
same,TGI,HOP-92 NSCLC,32.3 µM
same,GI50,UACC-257 melanoma,3.56 µM
same,TGI,UACC-257 melanoma,15.7 µM
same,GI50,OVCAR-4 ovarian,18.5 µM
same,TGI,OVCAR-4 ovarian,50.1 µM
same,GI50,SW-620 colon,11.9 µM
same,TGI,SW-620 colon,28.5 µM
same,GI50,HCC-2998 colon,1.63 µM
same,TGI,HCC-2998 colon,3.03 µM
same,GI50,NCI/ADR-RES ovarian,17 µM
same,TGI,NCI/ADR-RES ovarian,35.1 µM
same,GI50,TK-10 renal,17.4 µM
same,TGI,TK-10 renal,36.7 µM
same,GI50,LOX IMVI melanoma,1.63 µM
same,TGI,LOX IMVI melanoma,2.99 µM
same,GI50,SF-268 CNS,2.45 µM
same,TGI,SF-268 CNS,7.28 µM
same,GI50,786-0 renal,16.1 µM
same,TGI,786-0 renal,32.4 µM
same,GI50,SF-295 CNS,14 µM
same,TGI,SF-295 CNS,27.9 µM
same,GI50,OVCAR-5 ovarian,24.1 µM
same,TGI,OVCAR-5 ovarian,81.9 µM
same,GI50,EKVX NSCLC,12.6 µM
same,TGI,EKVX NSCLC,28.5 µM
same,GI50,HT29 colon,13.9 µM
same,TGI,HT29 colon,44.2 µM
same,GI50,U251 CNS,2.07 µM
same,TGI,U251 CNS,5.58 µM
same,GI50,HOP-62 NSCLC,17 µM
same,TGI,HOP-62 NSCLC,35.1 µM
same,GI50,MDA-MB-468 breast,1.66 µM
same,TGI,MDA-MB-468 breast,3.44 µM
